# Measurements taken from patent US20250051347A1, “BIFUNCTIONAL CHIMERIC HETEROCYCLIC COMPOUND AND USE THEREOF AS ANDROGEN RECEPTOR DEGRADER” (Hinova Pharmaceuticals, Inc., priority 2021, published 2025).
# Molecular target: T1, androgen receptor (AR) splicing variant AR-v7 (Homo sapiens, UniProt P10275)
# T1 construct: The degradation activity of compounds on AR-v7 in 22RV1 cells; host or cells: 22RV1 cells
# T1 sequence (P10275 1-644 isoform P10275-3): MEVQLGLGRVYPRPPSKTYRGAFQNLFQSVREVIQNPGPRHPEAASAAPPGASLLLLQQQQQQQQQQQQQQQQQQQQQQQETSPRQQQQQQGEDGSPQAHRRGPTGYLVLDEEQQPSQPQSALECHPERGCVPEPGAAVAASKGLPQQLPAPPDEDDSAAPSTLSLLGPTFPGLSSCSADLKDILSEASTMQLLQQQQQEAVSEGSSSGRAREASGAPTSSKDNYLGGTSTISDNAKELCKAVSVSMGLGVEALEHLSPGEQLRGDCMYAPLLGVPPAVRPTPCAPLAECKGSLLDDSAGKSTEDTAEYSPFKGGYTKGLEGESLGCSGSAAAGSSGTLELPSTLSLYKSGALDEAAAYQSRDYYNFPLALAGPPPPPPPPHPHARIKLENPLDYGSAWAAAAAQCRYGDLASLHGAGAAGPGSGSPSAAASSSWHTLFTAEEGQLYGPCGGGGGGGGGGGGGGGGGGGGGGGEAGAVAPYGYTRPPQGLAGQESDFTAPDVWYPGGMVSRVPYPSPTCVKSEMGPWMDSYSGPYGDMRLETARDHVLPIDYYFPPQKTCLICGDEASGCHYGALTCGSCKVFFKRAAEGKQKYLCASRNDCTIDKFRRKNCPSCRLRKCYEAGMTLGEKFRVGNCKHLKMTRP
# Assay: Degradation activity on androgen receptor splicing variant AR-v7 in 22RV1 cells (ELISA)
# Assay type: cell-based
# Settings: AR-v7 degradation in 22RV1 cells, 48 h
Structure (SMILES),DC50 (class symbols) [nM],DC50 (numeric values) [nM]
"CC(C)(c1ccc(OCCNc2cccc3c2C(=O)N(C2CCC(=O)NC2=O)C3=O)cc1)c1ccc(OCc2ccnc(NS(C)(=O)=O)n2)cc1 (stereo not drawn) [Example 53, N-(4-((4-(2-(4-(2-((2-(2,6-dioxopiperidin-3-yl)-1,3-dioxoisoindolin-4-yl)amino)ethoxy)phenyl)isopropan-2-yl)phenoxy)methyl)pyrimidin-2-yl)methanesulfonamide]",1000 to 5000,
"CC(C)(c1ccc(OCCCCOCCCCNc2ccc3c(c2)C(=O)N(C2CCC(=O)NC2=O)C3=O)cc1)c1ccc(OCc2ccnc(NS(C)(=O)=O)n2)cc1 (stereo not drawn) [Example 54, N-(4-((4-(2-(4-(4-(4-((2-(2,6-dioxopiperidin-3-yl)-1,3-dioxoisoindolin-5-yl)amino)butoxy)butoxy)phenyl)isopropan-2-yl)phenoxy)methyl)pyrimidin-2-yl)methanesulfonamide]",101 to 1000,
"CC(C)(c1ccc(OCc2ccnc(NS(C)(=O)=O)n2)cc1)c1ccc(OC[C@H]2CC[C@H](COCCCCCNc3ccc4c(c3)C(=O)N(C3CCC(=O)NC3=O)C4=O)CC2)cc1 (stereo partly drawn) [Example 56, N-(4-((4-(2-(4-(((1r,4r)-4-(((5-((2-(2,6-dioxopiperidin-3-yl)-1,3-dioxoisoindolin-5-yl)amino)pentyl)oxy)methyl)cyclohexyl)methoxy)phenyl)isopropan-2-yl)phenoxy)methyl)pyrimidin-2-yl)methanesulfonamide]",,5200
"CCC(CC)(c1ccc(OCCCCCCCCOCCCCNc2ccc3c(c2)C(=O)N(C2CCC(=O)NC2=O)C3=O)cc1)c1ccc(OCc2ccnc(NS(C)(=O)=O)n2)cc1 (stereo not drawn) [Example 57, N-(4-((4-(3-(4-((8-(4-((2-(2,6-dioxopiperidin-3-yl)-1,3-dioxoisoindolin-5-yl)amino)butoxy)octyl)oxy)phenyl)pentan-3-yl)phenoxy)methyl)pyrimidin-2-yl)methanesulfonamide]",101 to 1000,
CS(=O)(=O)Nc1cc(COc2ccc(C3(c4ccc(OCCCCCCCCOCCCCNc5ccc6c(c5)C(=O)N(C5CCC(=O)NC5=O)C6=O)cc4)CCC3)cc2)ccn1 (stereo not drawn) [Example 58],1000 to 5000,
CC(C)(c1ccc(OCCCNc2cccc3c2C(=O)N(C2CCC(=O)NC2=O)C3=O)cc1)c1ccc(OCc2ccnc(N3CCOCC3)n2)cc1 (stereo not drawn) [Example 59],11 to 100,
CN1CCN(c2nccc(COc3ccc(C(C)(C)c4ccc(OCCCNc5cccc6c5C(=O)N(C5CCC(=O)NC5=O)C6=O)cc4)cc3)n2)CC1 (stereo not drawn) [Example 60],101 to 1000,
CC1CN(c2nccc(COc3ccc(C(C)(C)c4ccc(OCCCCCCCCOCCCCNc5ccc6c(c5)C(=O)N(C5CCC(=O)NC5=O)C6=O)cc4)cc3)n2)C1 (stereo not drawn) [Example 63],1000 to 5000,
"CC(C)(c1ccc(OCCCCCCCCOCCCCNc2ccc3c(c2)C(=O)N(C2CCC(=O)NC2=O)C3=O)cc1)c1ccc(N2CCc3cnc(N4CC5(COC5)C4)nc3C2)cc1 (stereo not drawn) [Example 65, 5-((4-((8-(4-(2-(4-(2-(2-oxa-6-azaspiro[3.3]heptan-6-yl)-5,8-dihydropyrido[3,4-d]pyrimidin-7(6H)-yl)phenyl)propan-2-yl)phenoxy)octyl)oxy)butyl)amino)-2-(2,6-dioxopiperidin-3-yl)isoindolin-1,3-dione]",,> 10000
"CC(C)(c1ccc(OCCCNc2ccc3c(c2)C(=O)N(C2CCC(=O)NC2=O)C3=O)cc1)c1ccc(OCc2ccnc(S(C)(=O)=O)n2)cc1 (stereo not drawn) [Example 67, 2-(2,6-dioxopiperidin-3-yl)-5-((3-(4-(2-(4-(4-(2-(methanesulfonyl)pyrimidin-4-yl)methoxy)phenyl)propan-2-yl)phenoxy)propyl)amino)isoindolin-1,3-dione]",1000 to 5000,
"CC(C)(c1ccc(OCc2ccnc(N3CCC4(CC3)COC4)n2)cc1)c1ccc(OC2CC(Nc3ccc4c(c3)C(=O)N(C3CCC(=O)NC3=O)C4=O)C2)cc1 (stereo not drawn) [Example 78, 5-((3-(4-(2-(4-((2-(2-oxa-7-azaspiro[3.5]nonan-7-yl)pyrimidin-4-yl)methoxy)phenyl)propan-2-yl)phenoxy)cyclobutyl)amino)-2-(2,6-dioxopiperidin-3-yl)isoindolin-1,3-dione]",11 to 100,
"CN1CCC2(CCN(c3nccc(COc4ccc(C(C)(C)c5ccc(OC6CC(Nc7ccc8c(c7)C(=O)N(C7CCC(=O)NC7=O)C8=O)C6)cc5)cc4)n3)C2)C1 (stereo not drawn) [Example 79, 2-(2,6-dioxopiperidin-3-yl)-5-((3-(4-(2-(4-((2-(7-methyl-2,7-diazaspiro[4.4]nonan-2-yl)pyrimidin-4-yl)methoxy)phenyl)propan-2-yl)phenoxy)cyclobutyl)amino)isoindolin-1,3-dione]",11 to 100,
CC(C)(c1ccc(OCc2ccnc(N3CC4CNCC4C3)n2)cc1)c1ccc(OC2CC(Nc3ccc4c(c3)C(=O)N(C3CCC(=O)NC3=O)C4=O)C2)cc1 (stereo not drawn) [Example 80],11 to 100,
"CC(C)(c1ccc(OCc2ccnc(N3CCC4(CCNC4)C3)n2)cc1)c1ccc(O[C@H]2C[C@H](Nc3ccc4c(c3)C(=O)N(C3CCC(=O)NC3=O)C4=O)C2)cc1 (stereo partly drawn) [Example 81, 5-(((1r,3r)-3-(4-(2-(4-((2-(2,7-diazaspiro[4.4]nonan-2-yl)pyrimidin-4-yl)methoxy)phenyl)propan-2-yl)phenoxy)cyclobutyl)amino)-2-(2,6-dioxopiperidin-3-yl)isoindolin-1,3-dione]",11 to 100,
"CC(C)(c1ccc(OCc2ccnc(N3CCC4(CNC4)C3)n2)cc1)c1ccc(O[C@H]2C[C@H](Nc3ccc4c(c3)C(=O)N(C3CCC(=O)NC3=O)C4=O)C2)cc1 (stereo partly drawn) [Example 83, 5-(((1r,3r)-3-(4-(2-(4-((2-(2,6-diazaspiro[3.4]octan-6-yl)pyrimidin-4-yl)methoxy)phenyl)propan-2-yl)phenoxy)cyclobutyl)amino)-2-(2,6-dioxopiperidin-3-yl)isoindolin-1,3-dione]",11 to 100,

# Next, values leading:
DC50 (class symbols) [nM],DC50 (numeric values) [nM],Structure (SMILES)
11 to 100,,"CC(C)(c1ccc(OCc2ccnc(N3CCC4(CC3)CNC4)n2)cc1)c1ccc(O[C@H]2C[C@@H](Nc3ccc4c(c3)C(=O)N(C3CCC(=O)NC3=O)C4=O)C2)cc1 (stereo partly drawn) [Example 84, 5-(((1s,3s)-3-(4-(2-(4-((2-(2,7-diazaspiro[3.5]nonan-7-yl)pyrimidin-4-yl)methoxy)phenyl)propan-2-yl)phenoxy)cyclobutyl)amino)-2-(2,6-dioxopiperidin-3-yl)isoindolin-1,3-dione]"
11 to 100,,"CC(C)(c1ccc(OCc2ccnc(N3CC4(CCNCC4)C3)n2)cc1)c1ccc(O[C@H]2C[C@@H](Nc3ccc4c(c3)C(=O)N(C3CCC(=O)NC3=O)C4=O)C2)cc1 (stereo partly drawn) [Example 85, 5-(((1s,3s)-3-(4-(2-(4-((2-(2,7-diazaspiro[3.5]nonan-2-yl)pyrimidin-4-yl)methoxy)phenyl)propan-2-yl)phenoxy)cyclobutyl)amino)-2-(2,6-dioxopiperidin-3-yl)isoindolin-1,3-dione]"
11 to 100,,CC(C)(c1ccc(OCc2ccnc(N3CC4(CNC4)C3)n2)cc1)c1ccc(O[C@H]2C[C@@H](Nc3ccc4c(c3)C(=O)N(C3CCC(=O)NC3=O)C4=O)C2)cc1 (stereo partly drawn) [Example 86]
11 to 100,,"CC(C)(c1ccc(OCc2ccnc(N3CCC4(CC3)COC4)n2)cc1)c1ccc(O[C@H]2C[C@@H](Nc3ccc4c(c3)C(=O)N(C3CCC(=O)NC3=O)C4=O)C2)cc1 (stereo partly drawn) [Example 87, 5-(((1s,3s)-3-(4-(2-(4-((2-(2-oxa-7-azaspiro[3.5]nonan-7-yl)pyrimidin-4-yl)methoxy)phenyl)propan-2-yl)phenoxy)cyclobutyl)amino)-2-(2,6-dioxopiperidin-3-yl)isoindolin-1,3-dione]"
101 to 1000,,"CC(C)(c1ccc(OCc2ccnc(N3CC4(COC4)C3)n2)cc1)c1ccc(O[C@H]2C[C@@H](Nc3ccc4c(c3)C(=O)N(C3CCC(=O)NC3=O)C4)C2)cc1 (stereo partly drawn) [Example 92, 3-(6-(((1s,3s)-3-(4-(2-(4-((2-(2-oxa-6-azaspiro[3.3]heptane-6-yl)pyrimidin-4-yl)methoxy)phenyl)propan-2-yl)phenoxy)cyclobutyl)amino)-1-oxoisoindolin-2-yl)piperidin-2,6-dione]"
101 to 1000,,"CC(C)(c1ccc(Oc2ccc(-n3nccn3)nc2)cc1)c1ccc(OC2CC(Nc3ccc4c(c3)CN(C3CCC(=O)NC3=O)C4=O)C2)cc1 (stereo not drawn) [Example 93, 3-(5-((1r,3r)-3-(4-(2-(4-((6-(2H-1,2,3-triazol-2-yl)pyridin-3-yl)oxy)phenyl)propan-2-yl)phenoxy)cyclobutyl)amino)-1-oxoisoindolin-2-yl)piperidin-2,6-dione]"
101 to 1000,,"CN1C(=O)CCC(N2C(=O)c3ccc(N[C@H]4C[C@H](Oc5ccc(C(C)(C)c6ccc(OCc7ccnc(N8CC9(COC9)C8)n7)cc6)cc5)C4)cc3C2=O)C1=O (stereo partly drawn) [Example 100, 5-((1r,3r)-3-(4-(2-(4-(4-((2-(2-oxa-6-azaspiro[3.3]heptane-6-yl)pyrimidin-4-yl)methoxy)phenyl)propan-2-yl)phenoxy)cyclobutyl)amino)-2-(1-methyl-2,6-dioxopiperidin-3-yl)isoindolin-1,3-dione]"
11 to 100,,Cc1nc(-c2ncc(Oc3ccc(C(C)(C)c4ccc(O[C@H]5C[C@H](Nc6cc7c(cc6F)C(=O)N(C6CCC(=O)NC6=O)C7=O)C5)cc4)cc3)cn2)no1 (stereo partly drawn) [Example 102]
,> 10000,CC(=O)c1nccc(COc2ccc(C(C)(C)c3ccc(OC4CCCN(c5ccc6c(c5)C(=O)N(C5CCC(=O)NC5=O)C6=O)C4)cc3)cc2)n1 (stereo not drawn) [Example 107]
